Some test systems named below: A549 NSCLC; COLO 205 colon; HOP-62 NSCLC; LOX IMVI melanoma; M14 melanoma; MOLT-4 leukemia; NCI-H460 lung; SR leukemia; TK-10 renal; EKVX NSCLC.
Common to all, as to assay: NCI-60 cell line screen, 48 h

Molecules are shown by their SMILES.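 Tested at 5 concentrations; 48 h exposure; 96-well plates; endpoints linearly interpolated, else capped at highest concentration. GI50: concentration for 50% inhibition of growth. TGI denotes the concentration required for complete inhibition of growth.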 Where only a bound is given, the exact number is not on record here.

Take `COc1cc(/C=C/c2cc(C(F)(F)F)[nH]c(=O)n2)ccc1OCc1ccccc1F`: the GI50 was 6.97 µM in the assay on A549 NSCLC; 19.1 µM in the assay with COLO 205 colon; 10.3 µM in the assay with HOP-62 NSCLC; 8.57 µM with LOX IMVI melanoma; 12.5 µM in the assay on M14 melanoma; 7.27 µM with MOLT-4 leukemia. In addition, the GI50 is 4.44 µM in the assay with NCI-H460 lung, 4.17 µM in the assay with SR leukemia and 18 µM with TK-10 renal. The TGI in the assay with A549 NSCLC is 40.3 µM; in the assay on COLO 205 colon it was 33.9 µM; in the assay with HOP-62 NSCLC, 25 µM; in the assay on LOX IMVI melanoma, 22 µM; in the assay with M14 melanoma, 26.1 µM; in the assay with MOLT-4 leukemia, 38 µM. Besides, the TGI in the assay with NCI-H460 lung is 39.3 µM; with SR leukemia, 43.3 µM; in the assay on TK-10 renal, 39.1 µM.
As for `CC(=O)CC1CCC(=O)CCC(=O)OC(CC(C)=O)CCC(=O)CCC(=O)O1` (configuration not stated), the TGI in the assay on A549 NSCLC, with COLO 205 colon, with EKVX NSCLC, in the assay on HOP-62 NSCLC, in the assay on M14 melanoma and in the assay on MOLT-4 leukemia was greater than 100 µM each time. The TGI in the assay on NCI-H460 lung and in the assay with TK-10 renal was greater than 100 µM each time.
For `COc1cc(OC)c(/C=C/c2ccc3ccccc3[n+]2C)c(OC)c1`, the GI50 is 0.748 µM in the assay with A549 NSCLC; 0.208 µM with COLO 205 colon; 1.13 µM in the assay on HOP-62 NSCLC; 1.33 µM with LOX IMVI melanoma; 1.22 µM in the assay on M14 melanoma; 1.35 µM in the assay on MOLT-4 leukemia. Also, the GI50 in the assay with NCI-H460 lung is 0.577 µM; in the assay with SR leukemia, 0.35 µM; in the assay with TK-10 renal, 1.91 µM. In addition, the TGI was found to be 13.9 µM in the assay on A549 NSCLC; 0.465 µM in the assay with COLO 205 colon; 12.1 µM with HOP-62 NSCLC; 3.99 µM in the assay on LOX IMVI melanoma; 5.01 µM in the assay on M14 melanoma; 4.77 µM in the assay with MOLT-4 leukemia. Further, the TGI in the assay with NCI-H460 lung was 2.72 µM; in the assay on SR leukemia, 2.68 µM; in the assay with TK-10 renal, 6.93 µM.
Turning to `CC1=CSC2=NC(c3ccc(Cl)c(Cl)c3)=CC(c3ccc(Cl)cc3)N12` (configuration not stated), the GI50 in the assay with A549 NSCLC, in the assay on COLO 205 colon, with HOP-62 NSCLC, in the assay with LOX IMVI melanoma, in the assay on M14 melanoma and in the assay on MOLT-4 leukemia was greater than 100 µM in each case. The GI50 is greater than 100 µM with NCI-H460 lung, greater than 61.3 µM in the assay with SR leukemia and greater than 100 µM with TK-10 renal. Also, the TGI with A549 NSCLC, with COLO 205 colon, in the assay with HOP-62 NSCLC, with LOX IMVI melanoma, in the assay on M14 melanoma and in the assay on MOLT-4 leukemia was greater than 100 µM each time. In addition, the TGI with NCI-H460 lung, with SR leukemia and in the assay with TK-10 renal was greater than 100 µM each time.
With `Nc1ccc(C(=O)N/C(=C\C=C\c2ccco2)c2nc3[nH]c(=S)[nH]c(=O)c3[nH]2)cc1`, the TGI with A549 NSCLC, in the assay on COLO 205 colon, in the assay with EKVX NSCLC, in the assay with M14 melanoma, in the assay on MOLT-4 leukemia and in the assay on SR leukemia was greater than 100 µM each time. Further, the TGI with TK-10 renal was greater than 100 µM.
Consider `O=C(Nc1ccccc1)c1ccc(Cl)c([N+](=O)[O-])c1`, for which the TGI in the assay with A549 NSCLC is greater than 100 µM; with COLO 205 colon, 70 µM; in the assay with EKVX NSCLC it was greater than 100 µM; in the assay on HOP-62 NSCLC, greater than 100 µM; in the assay with LOX IMVI melanoma, greater than 100 µM; in the assay with M14 melanoma it was 29.9 µM. Besides, the TGI is 21.8 µM in the assay on MOLT-4 leukemia, 98.9 µM in the assay with NCI-H460 lung and greater than 100 µM with TK-10 renal.
With `CC(C)c1ccc(Cc2cnc(NC(=O)c3cc(Br)cs3)s2)cc1`, the GI50 in the assay with A549 NSCLC is 3.65 µM; in the assay with COLO 205 colon it was 2.92 µM; with EKVX NSCLC, 4 µM; in the assay on HOP-62 NSCLC, 3.05 µM; in the assay with LOX IMVI melanoma it was 5.35 µM; with M14 melanoma it was 2.44 µM. Besides, the GI50 in the assay on MOLT-4 leukemia is 7.59 µM; in the assay on NCI-H460 lung, 3.3 µM; in the assay on TK-10 renal, 2.72 µM. The TGI in the assay with A549 NSCLC is greater than 100 µM; in the assay on COLO 205 colon it was 15 µM; with EKVX NSCLC it was greater than 100 µM; with HOP-62 NSCLC, 29.2 µM; with LOX IMVI melanoma, greater than 100 µM; in the assay with M14 melanoma it was greater than 100 µM. Moreover, the values for the TGI in the assay with MOLT-4 leukemia, with NCI-H460 lung and with TK-10 renal were greater than 100 µM, greater than 100 µM and 19.4 µM, respectively.
Turning to `CC(=O)NC1=N/C(=C/c2cc([N+](=O)[O-])ccc2O)CN1C`, the TGI with A549 NSCLC, in the assay with COLO 205 colon, in the assay on EKVX NSCLC, in the assay with HOP-62 NSCLC, in the assay with LOX IMVI melanoma and with M14 melanoma was greater than 100 µM throughout. Further, the TGI with MOLT-4 leukemia, in the assay on NCI-H460 lung and in the assay on TK-10 renal was greater than 100 µM each time.
In the case of `CCN(CC)c1ccc(N=Nc2ccc(-c3nc4cccnc4o3)cc2)cc1`, the TGI with A549 NSCLC, in the assay with COLO 205 colon, in the assay on EKVX NSCLC, in the assay on HOP-62 NSCLC, in the assay on LOX IMVI melanoma and in the assay on M14 melanoma was greater than 100 µM in each case. In addition, the TGI with MOLT-4 leukemia and in the assay on TK-10 renal was greater than 100 µM each time.
Regarding `C=CCn1c(C)nc2cc(Nc3nc(Nc4ccc5nc(C)n(CC=C)c5c4)c4ccccc4n3)ccc21`, the GI50 is 0.208 µM in the assay with LOX IMVI melanoma, 0.229 µM with MOLT-4 leukemia and 0.78 µM in the assay on TK-10 renal. The figures for the TGI with LOX IMVI melanoma, with MOLT-4 leukemia and in the assay with TK-10 renal were 0.466 µM, 0.629 µM and 2.1 µM, respectively.
`COc1ccc(/C=C/c2cc(OC)c(OC)c(OC)c2)cc1NC(=O)/C=C/c1ccc(F)cc1`: the GI50 in the assay on A549 NSCLC was 3.41 µM; in the assay on COLO 205 colon, 2.43 µM; in the assay on EKVX NSCLC it was 7.4 µM; in the assay with HOP-62 NSCLC it was 3.84 µM; with LOX IMVI melanoma it was 6.15 µM; with M14 melanoma, 2.81 µM. Further, the GI50 in the assay with MOLT-4 leukemia was 4.48 µM; in the assay on NCI-H460 lung, 3.09 µM; in the assay with TK-10 renal, 4.73 µM. Also, the TGI in the assay on A549 NSCLC was greater than 100 µM; with COLO 205 colon, 6.71 µM; in the assay on EKVX NSCLC, greater than 100 µM; with HOP-62 NSCLC, greater than 100 µM; in the assay on LOX IMVI melanoma it was greater than 100 µM; with M14 melanoma it was greater than 100 µM. The TGI in the assay on MOLT-4 leukemia, in the assay on NCI-H460 lung and with TK-10 renal was greater than 100 µM in each case.

Source of the values: PubChem BioAssay (NCI).
